Measurements from ChEMBL document CHEMBL4814014, “Identification of novel androgen receptor degrading agents to treat advanced prostate cancer” (Eur J Med Chem, 2021).

Tests used:
LNCaP = assay: Antiproliferative activity against AR-positive human LNCaP cells assessed as reduction in cell viability incubated for 3 days by MTT assay; settings: 72 h
DU-145 = assay: Antiproliferative activity against AR-negative human DU145 cells assessed as reduction in cell viability incubated for 3 days by MTT assay; settings: DU-145, 72 h
CWR22R = assay: Antiproliferative activity against AR-positive human 22RV1 cells assessed as reduction in cell viability incubated for 3 days by MTT assay; settings: 22Rv1, 72 h

IC50 (LNCaP) [µM]	IC50 (DU-145) [µM]	SMILES	IC50 (CWR22R) [µM]
15.1	14.7	C=CC(=O)Nc1ccc(-c2cc(=O)c3c(O)cc(OC)c(OC(C)C)c3o2)cc1	5.8
17.6	45.3	CNC(=O)c1ccc(N2C(=S)N(c3ccc(C#N)c(C(F)(F)F)c3)C(=O)C2(C)C)cc1F [ENZALUTAMIDE]	42.3
